# In the supplement of paper PMC10307832:
# Tests used:
# Experiment in all cases: relative viability (nuclei count vs DMSO), 5 days (fraction); higher = more cells survive
# EPLC-272H = system: EPLC-272H
# Method in brief: (§1)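 Lung cancer cell lines were pin-tool dosed in 1536-well plates on the day after seeding, with either a lone drug or a fixed anchor-drug dose plus five library-drug doses (not always all listed) in √10 steps. Nuclei were counted on 4× images after 5 days. Relative viability is the ratio of treated-well to vehicle-well nuclei counts, with each value a median of duplicate plates.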
# HCC-827 = system: HCC-827
# Method in brief: as §1
# LOU-NH91 = system: LOU-NH91
# Method in brief: as §1
# LXF-289 = system: LXF-289
# Method in brief: as §1
# NCI-H1395 = system: NCI-H1395
# Method in brief: as §1
# NCI-H1651 = system: NCI-H1651
# Method in brief: as §1
# NCI-H1755 = system: NCI-H1755
# Method in brief: as §1
# NCI-H1793 = system: NCI-H1793
# Method in brief: as §1
# NCI-H2126 = system: NCI-H2126
# Method in brief: as §1
# NCI-H2170 = system: NCI-H2170
# Method in brief: as §1
# NCI-H2228 = system: NCI-H2228
# Method in brief: as §1
# NCI-H2347 = system: NCI-H2347
# Method in brief: as §1
# NCI-H23 = system: NCI-H23
# Method in brief: as §1
# NCI-H322M = system: NCI-H322M
# Method in brief: as §1
# NCI-H358 = system: NCI-H358
# Method in brief: as §1
# NCI-H596 = system: NCI-H596
# Method in brief: as §1
# NCI-H647 = system: NCI-H647
# Method in brief: as §1
# NCI-H650 = system: NCI-H650
# Method in brief: as §1
# PC-3 [JPC-3] = system: PC-3 [JPC-3]
# Method in brief: as §1
# RERF-LC-KJ = system: RERF-LC-KJ
# Method in brief: as §1
smiles,measurement,setting,value
Cc1cn(-c2cc(NC(=O)c3ccc(C)c(Nc4nccc(-c5cccnc5)n4)c3)cc(C(F)(F)F)c2)cn1 [Nilotinib] + CS(=O)(=O)CCNCc1ccc(-c2ccc3ncnc(Nc4ccc(OCc5cccc(F)c5)c(Cl)c4)c3c2)o1 [Lapatinib] (partner 2 µM),relative viability,EPLC-272H; first compound 0.001 µM,0.877
same,relative viability,EPLC-272H; first compound 0.003162 µM,1.23
same,relative viability,EPLC-272H; first compound 0.01 µM,0.775
same,relative viability,EPLC-272H; first compound 0.03162 µM,0.976
same,relative viability,EPLC-272H; first compound 0.1 µM,0.402
same,relative viability,HCC-827; first compound 0.001 µM,0.233
same,relative viability,HCC-827; first compound 0.003162 µM,0.184
same,relative viability,HCC-827; first compound 0.01 µM,0.154
same,relative viability,HCC-827; first compound 0.1 µM,0.184
same,relative viability,LOU-NH91; first compound 0.001 µM,0.76
same,relative viability,LOU-NH91; first compound 0.003162 µM,0.679
same,relative viability,LOU-NH91; first compound 0.01 µM,0.649
same,relative viability,LOU-NH91; first compound 0.03162 µM,0.761
same,relative viability,LOU-NH91; first compound 0.1 µM,0.747
same,relative viability,LXF-289; first compound 0.001 µM,0.839
same,relative viability,LXF-289; first compound 0.003162 µM,1.05
same,relative viability,LXF-289; first compound 0.01 µM,0.927
same,relative viability,LXF-289; first compound 0.03162 µM,0.941
same,relative viability,LXF-289; first compound 0.1 µM,0.63
same,relative viability,NCI-H1395; first compound 0.001 µM,1.02
same,relative viability,NCI-H1395; first compound 0.003162 µM,0.575
same,relative viability,NCI-H1395; first compound 0.01 µM,0.9
same,relative viability,NCI-H1395; first compound 0.03162 µM,1.14
same,relative viability,NCI-H1395; first compound 0.1 µM,0.596
same,relative viability,NCI-H1651; first compound 0.001 µM,0.815
same,relative viability,NCI-H1651; first compound 0.003162 µM,0.803
same,relative viability,NCI-H1651; first compound 0.01 µM,1.06
same,relative viability,NCI-H1651; first compound 0.03162 µM,0.737
same,relative viability,NCI-H1651; first compound 0.1 µM,0.359
same,relative viability,NCI-H1755; first compound 0.001 µM,1.02
same,relative viability,NCI-H1755; first compound 0.003162 µM,1.35
same,relative viability,NCI-H1755; first compound 0.01 µM,1.43
same,relative viability,NCI-H1755; first compound 0.03162 µM,0.986
same,relative viability,NCI-H1755; first compound 0.1 µM,0.551
same,relative viability,NCI-H1793; first compound 0.003162 µM,0.842
same,relative viability,NCI-H1793; first compound 0.01 µM,1.02
same,relative viability,NCI-H1793; first compound 0.03162 µM,0.859
same,relative viability,NCI-H1793; first compound 0.1 µM,0.21
same,relative viability,NCI-H2126; first compound 0.001 µM,0.729
same,relative viability,NCI-H2126; first compound 0.003162 µM,0.813
same,relative viability,NCI-H2126; first compound 0.01 µM,0.664
same,relative viability,NCI-H2126; first compound 0.03162 µM,0.858
same,relative viability,NCI-H2126; first compound 0.1 µM,0.507
same,relative viability,NCI-H2170; first compound 0.001 µM,0.26
same,relative viability,NCI-H2170; first compound 0.003162 µM,0.285
same,relative viability,NCI-H2170; first compound 0.01 µM,0.272
same,relative viability,NCI-H2170; first compound 0.03162 µM,0.28
same,relative viability,NCI-H2170; first compound 0.1 µM,0.268
same,relative viability,NCI-H2228; first compound 0.001 µM,1.03
same,relative viability,NCI-H2228; first compound 0.003162 µM,1.25
same,relative viability,NCI-H2228; first compound 0.01 µM,1.13
same,relative viability,NCI-H2228; first compound 0.03162 µM,1.01
same,relative viability,NCI-H2228; first compound 0.1 µM,0.285
same,relative viability,NCI-H2347; first compound 0.001 µM,0.821
same,relative viability,NCI-H2347; first compound 0.003162 µM,1.01
same,relative viability,NCI-H2347; first compound 0.01 µM,0.823
same,relative viability,NCI-H2347; first compound 0.03162 µM,0.817
same,relative viability,NCI-H2347; first compound 0.1 µM,0.6
same,relative viability,NCI-H23; first compound 0.001 µM,1.01
same,relative viability,NCI-H23; first compound 0.003162 µM,1.13
same,relative viability,NCI-H23; first compound 0.01 µM,1.4
same,relative viability,NCI-H23; first compound 0.03162 µM,0.87
same,relative viability,NCI-H23; first compound 0.1 µM,0.704
same,relative viability,NCI-H322M; first compound 0.001 µM,0.557
same,relative viability,NCI-H322M; first compound 0.003162 µM,0.515
same,relative viability,NCI-H322M; first compound 0.03162 µM,0.596
same,relative viability,NCI-H322M; first compound 0.1 µM,0.649
same,relative viability,NCI-H358; first compound 0.001 µM,0.442
same,relative viability,NCI-H358; first compound 0.003162 µM,0.529
same,relative viability,NCI-H358; first compound 0.01 µM,0.539
same,relative viability,NCI-H358; first compound 0.03162 µM,0.438
same,relative viability,NCI-H358; first compound 0.1 µM,0.325
same,relative viability,NCI-H596; first compound 0.001 µM,1.01
same,relative viability,NCI-H596; first compound 0.003162 µM,1.15
same,relative viability,NCI-H596; first compound 0.01 µM,1.09
same,relative viability,NCI-H596; first compound 0.03162 µM,0.984
same,relative viability,NCI-H596; first compound 0.1 µM,0.88
same,relative viability,NCI-H647; first compound 0.001 µM,0.978
same,relative viability,NCI-H647; first compound 0.003162 µM,1.42
same,relative viability,NCI-H647; first compound 0.03162 µM,0.672
same,relative viability,NCI-H647; first compound 0.1 µM,0.723
same,relative viability,NCI-H650; first compound 0.001 µM,0.897
same,relative viability,NCI-H650; first compound 0.003162 µM,0.65
same,relative viability,NCI-H650; first compound 0.01 µM,0.918
same,relative viability,NCI-H650; first compound 0.03162 µM,0.851
same,relative viability,NCI-H650; first compound 0.1 µM,0.682
same,relative viability,PC-3 [JPC-3]; first compound 0.001 µM,0.44
same,relative viability,PC-3 [JPC-3]; first compound 0.003162 µM,0.537
same,relative viability,PC-3 [JPC-3]; first compound 0.01 µM,0.467
same,relative viability,PC-3 [JPC-3]; first compound 0.03162 µM,0.542
same,relative viability,PC-3 [JPC-3]; first compound 0.1 µM,0.282
same,relative viability,RERF-LC-KJ; first compound 0.001 µM,0.874
same,relative viability,RERF-LC-KJ; first compound 0.003162 µM,0.986
same,relative viability,RERF-LC-KJ; first compound 0.01 µM,0.977
same,relative viability,RERF-LC-KJ; first compound 0.03162 µM,0.882
same,relative viability,RERF-LC-KJ; first compound 0.1 µM,0.888
